According to patent US20140249056A1, “BILAYERS” (ISIS INNOVATION LIMITED, priority 2009, published 2014):
Blank lines part the entries; values can stand above or below the compound they belong to.

Legend:
[1] = biological target: T1, Kv1.3 (K+ channels from lymphocyte membranes) (Homo sapiens, UniProt P22001); assay: Bulk current block of voltage-gated potassium channels from lymphocyte (SupT1) membranes in droplet bilayer; format: biochemical; settings: +50 mV
T1 construct: endogenously expressed voltage-gated potassium channels in primary lymphocytes; endogenous in cells; host or cells: SupT1 cells
Protocol: SupT1 cells were grown as a suspension culture and washed four times in buffer (150 mM KCl, 10 mM Hepes, pH 7.5). Cells were then lysed by hypo-osmotic shock, and membranes isolated by centrifugation and washing in isotonic buffer (140 mM KCl, 10 mM Hepes, pH 7.5). Membranes were diluted 1:10^4 and 1 μL of this solution was deposited on an agarose coated coverslip (1.5%). For bulk current blocking 4-aminopyridine a non-specific K+ channel blocker was used (5 mM, +50 mV). For specific blocking Kaliotoxin, a specific Kv-channel blocker, was used (50 μM, +50 mV).

[2] = test system: KATP channel (Kir6.2 and SUR1); assay: Bulk current block of KATP channels from Min6 cell membranes reconstituted in droplet bilayer; format: biochemical; settings: glibenclamide 1 mM, +50 mV, 140 mM KCl, 10 mM Hepes, pH 7.5, n=5
Protocol: For KATP channels, Kir6.2 and SUR1 (Sulfonylurea receptor) were co-expressed in Min6 cells. Frozen cells were subjected to three freeze-thaw cycles before they were sonicated for 1 minute (4° C., Sonorex, Bandelin, Germany, 320 W). After isolation of membranes by centrifugation, membranes were washed in isotonic buffer (140 mM KCl, 10 mM Hepes, pH 7.5), and diluted 1:5000. Membranes were incorporated into agarose by mixing (1:10 v:v) with cooling agarose (1.5%) and deposited onto the coverslip prior to device assembly. For single channel recordings the sample was diluted a further 10-fold. Electrical recordings were performed in 140 mM KCl, 10 mM Hepes, pH 7.5 in both droplet and agarose support. Bulk current block was obtained using glybenclamide (1 mM, +50 mV, n=5).

[3] = biological target: T2, Gardos K+ ion channel (Homo sapiens, UniProt O15554+P0DP23); assay: Ca2+ dependent K+ flux in red blood cell membranes reconstituted in droplet bilayer; format: biochemical; settings: 5 mM Ca2+ versus none, 150 mM KCl, pH 7, +50 mV, n=5
T2 construct: red blood cells were isolated from whole blood; from tissue; host or cells: red blood cells from whole blood
Protocol: Following previously published protocol (Gibson et al, J Physiol: 511(Pt1), 225-234 (1998)), red blood cells were isolated from whole blood of Sickle Cell or healthy individuals by centrifugation and washing four times in PBS buffer (137 mM NaCl, 2.7 mM KCl, 10 mM sodium phosphate dibasic, 2 mM potassium phosphate monobasic, pH 7.4, containing 1% glucose), removing remaining blood components by aspiration. Cells were lysed by hypo-osmotic shock in low salt buffer (15 mM NaCl, 10 mM EDTA, 10 mM Hepes, pH 7). Membranes were then sedimented by centrifugation and washed in low salt buffer four times before resuspension into isotonic buffer (150 mM NaCl or KCl or CaCl2, 10 mM Hepes, pH 7.4). For Gardos channel experiments, membranes were resuspended in isotonic buffer containing 150 mM KCl, 10 mM Hepes, pH 7. Droplets with or without Ca^2+ (150 mM KCl, +/−5 mM CaCl2, +/−5 mM KCl, 10 mM Hepes, pH 7, +50 mV, n=5) were used to observe Ca^2+ dependent K^+ flux. […] Further dilution of 1:20 was needed for single channel recordings.

[4] = biological target: Human NR1-1a/NR2A NMDA receptor (Homo sapiens, UniProt Q05586+Q12879); settings: glutamate 10 μM and glycine 10 μM added together, +50 mV, bulk current, n=5
Protocol: Human NR1-1a/NR2A receptor subunits were expressed in a adherent mouse fibroblast 3T3 cell line. After mechanically detaching cells from culture flasks, cells were washed in isotonic buffer (3 times with 140 mM NaCl, 10 mM Hepes, pH 7.5), Cells were then mechanically disrupted by 30 s of ultrasound (Sonorex, Bandelin, Germany, 320 W) and four freeze-thaw cycles. After isolating the membranes by centrifugation and washing in the above buffer, the sample was diluted into the same buffer (1:10^3). […] Upon further dilution of the membrane preparation (1:100) single channels could be recorded (+50 mV applied voltage).

[5] = biological target: T3, bacterial potassium channel KcsA (Streptomyces lividans, UniProt P0A334); assay: Bulk current block of KcsA from E. coli membranes reconstituted in droplet bilayer; format: biochemical; settings: 150 mM Ba2+ (BaCl2) in droplet, +50 mV, n=5
T3 construct: made in house; host or cells: porin-free E. coli strain PC2889, vector pQE60
T3 sequence (P0A334 1-160): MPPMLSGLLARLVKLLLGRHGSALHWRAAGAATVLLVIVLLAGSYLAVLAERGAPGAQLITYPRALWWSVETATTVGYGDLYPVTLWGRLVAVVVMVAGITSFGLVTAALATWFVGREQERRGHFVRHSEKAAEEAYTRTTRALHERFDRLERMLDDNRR
Protocol: KcsA was overexpressed in pQE60 (Qiagen, Germany) using a porin-free E. coli strain PC2889. Cells were disintegrated using a pressure-based cell homogenizer (TC5-612, Stansted Fluid Power, UK) and membranes isolated by centrifugation in water before freezing in liquid nitrogen. Sedimented membranes were resuspended in 150 mM KCl, 10 mM Hepes, pH 7.5. Membrane preparations were diluted 1:10^6 (for all cases dilutions are reported as volume:volume unless stated otherwise) and 1:10^8 for bulk and single channel recordings, respectively. Bulk and single channel recording was performed in 150 mM KCl, 10 mM Succinic acid, pH 4. Blocking experiments were performed using droplets containing 150 mM BaCl2, 10 mM Hepes, pH 7.5 (+50 mV, n=5).

T1 sequence (P22001 whole entry): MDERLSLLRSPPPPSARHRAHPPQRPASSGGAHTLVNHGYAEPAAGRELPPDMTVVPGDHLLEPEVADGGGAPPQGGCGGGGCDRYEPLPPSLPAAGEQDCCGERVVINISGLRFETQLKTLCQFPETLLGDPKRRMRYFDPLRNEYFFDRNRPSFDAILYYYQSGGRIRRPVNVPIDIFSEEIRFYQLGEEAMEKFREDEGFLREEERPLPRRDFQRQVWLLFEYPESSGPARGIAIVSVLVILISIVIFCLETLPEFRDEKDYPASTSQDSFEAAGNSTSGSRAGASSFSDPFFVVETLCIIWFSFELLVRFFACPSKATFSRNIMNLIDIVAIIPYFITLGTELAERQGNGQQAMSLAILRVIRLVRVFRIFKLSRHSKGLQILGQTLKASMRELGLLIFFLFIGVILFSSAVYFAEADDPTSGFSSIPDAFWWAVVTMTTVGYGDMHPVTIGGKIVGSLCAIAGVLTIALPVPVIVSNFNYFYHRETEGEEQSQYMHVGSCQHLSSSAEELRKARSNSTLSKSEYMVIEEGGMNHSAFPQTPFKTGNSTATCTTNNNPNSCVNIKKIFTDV
Sequence of Human NR1-1a/NR2A NMDA receptor (Q12879 23-1464, other chains not shown): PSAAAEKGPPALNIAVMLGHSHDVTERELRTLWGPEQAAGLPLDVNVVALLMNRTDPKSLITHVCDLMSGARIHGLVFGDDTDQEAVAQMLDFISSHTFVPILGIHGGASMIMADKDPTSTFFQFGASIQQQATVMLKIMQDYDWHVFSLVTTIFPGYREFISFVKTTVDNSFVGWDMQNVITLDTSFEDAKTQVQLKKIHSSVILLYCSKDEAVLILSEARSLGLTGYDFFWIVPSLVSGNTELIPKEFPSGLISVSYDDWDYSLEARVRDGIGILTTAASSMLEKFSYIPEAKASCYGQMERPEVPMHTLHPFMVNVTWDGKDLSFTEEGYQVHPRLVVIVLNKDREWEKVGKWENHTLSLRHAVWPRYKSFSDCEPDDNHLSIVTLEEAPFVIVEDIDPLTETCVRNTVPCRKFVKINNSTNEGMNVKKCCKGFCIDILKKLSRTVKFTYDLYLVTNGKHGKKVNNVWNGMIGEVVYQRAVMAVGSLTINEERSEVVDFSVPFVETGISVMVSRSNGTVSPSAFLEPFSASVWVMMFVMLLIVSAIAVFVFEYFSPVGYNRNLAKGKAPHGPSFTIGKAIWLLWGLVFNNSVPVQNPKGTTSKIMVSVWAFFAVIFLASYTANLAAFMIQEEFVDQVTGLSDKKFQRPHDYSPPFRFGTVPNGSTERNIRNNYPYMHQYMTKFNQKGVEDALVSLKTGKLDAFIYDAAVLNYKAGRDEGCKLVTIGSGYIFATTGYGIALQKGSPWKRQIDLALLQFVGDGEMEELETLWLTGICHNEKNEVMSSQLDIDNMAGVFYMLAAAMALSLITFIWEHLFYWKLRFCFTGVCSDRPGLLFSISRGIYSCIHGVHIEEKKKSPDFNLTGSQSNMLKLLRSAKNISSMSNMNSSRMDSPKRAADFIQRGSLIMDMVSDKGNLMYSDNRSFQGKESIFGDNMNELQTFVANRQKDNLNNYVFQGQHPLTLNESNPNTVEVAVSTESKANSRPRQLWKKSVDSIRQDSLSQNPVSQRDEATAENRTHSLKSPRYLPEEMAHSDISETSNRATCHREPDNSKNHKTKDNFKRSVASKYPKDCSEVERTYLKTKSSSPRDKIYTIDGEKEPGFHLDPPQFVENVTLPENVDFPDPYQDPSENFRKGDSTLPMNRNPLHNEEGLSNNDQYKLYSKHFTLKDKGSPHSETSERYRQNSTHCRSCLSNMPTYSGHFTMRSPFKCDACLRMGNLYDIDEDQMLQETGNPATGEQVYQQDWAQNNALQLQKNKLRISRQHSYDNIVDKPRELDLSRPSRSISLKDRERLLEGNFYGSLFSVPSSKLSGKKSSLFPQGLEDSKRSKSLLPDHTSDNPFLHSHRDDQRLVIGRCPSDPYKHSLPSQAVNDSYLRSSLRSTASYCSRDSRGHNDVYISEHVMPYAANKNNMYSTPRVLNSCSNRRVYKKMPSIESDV

Compound: Kaliotoxin: a specific Kv-channel blocker
block of bulk current (ion flux reduced) ([1]; 50 μM Kaliotoxin): 99% | block of bulk current (ion flux reduced) ([1]; 50 μM Kaliotoxin, listed as KTX): 99.4%

Compound: Nc1ccncc1 [4-aminopyridine]
block of bulk current (ion flux reduced) ([1]; 5 mM 4-aminopyridine): 96%

Compound: COc1ccc(Cl)cc1C(=O)NCCc1ccc(S(=O)(=O)NC(=O)NC2CCCCC2)cc1 [glibenclamide]
bulk currents blocked [2]: 91%

increase of Ca2+ induced K+ flux [3]: seven
Compound: [Ca+2].[Cl-].[Cl-] [Ca^2+, CaCl2]

increase in ionic flux [4]: 98%
Compound: NCC(=O)O [glycine]

Compound: [Ba+2].[Cl-].[Cl-] [Ba^2+, BaCl2]
block in current [5]: 93%
